{
  "source": "paper PMC8945229",
  "about": "“Development and Biological Characterization of a Novel Selective TrkA Agonist with Neuroprotective Properties against Amyloid Toxicity” (Biomedicines, 2022)",
  "key": {"[1]": {"test": "Metabolic stability in human liver microsomes", "type": "in vitro ADME", "details": "1 μM, 0.5 mg/mL microsomes, 1 mM NADPH, t = 60 min", "method": "Human liver microsome (pooled) concentration was set at 0.5 mg/mL and 1 mM NADPH served as a cofactor for oxidative (CYP-mediated) metabolic stability profiling. ENT-A013 was tested at 1 μM. Incubation conditions ensured linear metabolite formation with respect to reaction time and protein concentration. Incubations took place in triplicates at 37 °C in the presence of negative and positive controls (low vs. rapid clearance). Each reaction was terminated after the specified incubation period (60 min) and plates were read on Lionheart FX (BioTek, Winooski, VT, USA). Residual (%) of time zero (ENT-A013 depletion) was determined."}, "[2]": {"system": "CYP1A2, CYP2A6, CYP2B6, CYP2C9, CYP2C19, CYP2D6 and CYP3A4", "test": "CYP450 catalytic and metabolic activity, seven isoforms", "type": "in vitro ADME, human", "details": "1 μM", "method": "Baculosomes® expressing CYP1A2, CYP2A6, CYP2B6, CYP2C9, CYP2C19, CYP2D6 and CYP3A4 human CYP450 isoenzymes were purchased from Thermo Fisher Scientific (Waltham, MA, USA). All reagents were handled and prepared according to the manufacturer’s protocol. ENT-A013 was tested at 1 μM. Enzymatic activity in the presence of ΕΝΤ-A013 was assessed based on the kinetic model for CYP1A2, CYP2A6, CYP2B6, CYP2C9, CYP2C19, CYP2D6 and CYP3A4 isoforms. Reactions took place in triplicates at 20 °C. Glucose-6-phosphate at 333 mM and glucose-6-phosphate-dehydrogenase at 30 U/mL in 100 mM potassium phosphate, pH 8.0 (regeneration system) converted NADP^+ (10 mM in 100 mM potassium phosphate, pH 8.0) into NADPH to initiate the CYP450 reaction. Upon the addition of the fluorescent substrate, immediately (<2 min), the fluorescence signal was monitored over time at suitable excitation and emission wavelengths by Lionheart FX (BioTek, Winooski, VT, USA) (Table S2). CYP450 inhibition (%) was determined based on the reaction rates (fluorescence intensity changes per unit time). A total of n = 60 measurements per minute were acquired for a total time of t = 60 min. % Inhibition= (1 − X/A) × 100%(1) where: X is the rate observed in the presence of test-compound; A is the rate observed in the presence of negative (solvent, DMSO) control."}, "TrkB": {"target": "T1, TrkB (Homo sapiens, UniProt Q16620)", "T1 construct": "expressed in transfected cells", "T1 sequence (Q16620 32-822)": "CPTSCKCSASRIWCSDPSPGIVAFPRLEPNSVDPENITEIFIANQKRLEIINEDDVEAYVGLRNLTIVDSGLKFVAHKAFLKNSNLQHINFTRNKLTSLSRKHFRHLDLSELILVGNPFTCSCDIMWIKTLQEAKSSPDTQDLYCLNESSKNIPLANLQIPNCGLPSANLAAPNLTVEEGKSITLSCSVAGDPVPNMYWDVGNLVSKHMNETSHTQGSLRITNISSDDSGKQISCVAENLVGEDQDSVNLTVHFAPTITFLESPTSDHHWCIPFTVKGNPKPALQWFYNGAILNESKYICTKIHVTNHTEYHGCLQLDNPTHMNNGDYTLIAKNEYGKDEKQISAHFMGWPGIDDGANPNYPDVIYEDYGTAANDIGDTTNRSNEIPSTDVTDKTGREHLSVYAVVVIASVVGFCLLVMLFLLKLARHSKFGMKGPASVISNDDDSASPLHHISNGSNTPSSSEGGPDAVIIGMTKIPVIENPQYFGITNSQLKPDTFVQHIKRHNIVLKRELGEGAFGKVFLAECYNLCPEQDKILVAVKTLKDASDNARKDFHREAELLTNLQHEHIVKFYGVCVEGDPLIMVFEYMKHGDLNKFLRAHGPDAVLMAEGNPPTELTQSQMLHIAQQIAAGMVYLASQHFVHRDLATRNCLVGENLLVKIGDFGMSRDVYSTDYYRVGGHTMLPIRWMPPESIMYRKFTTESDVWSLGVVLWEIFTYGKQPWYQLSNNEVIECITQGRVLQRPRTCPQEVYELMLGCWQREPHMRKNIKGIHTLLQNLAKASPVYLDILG", "test": "TrkB phosphorylation in NIH-3T3 cells stably transfected with TrkB", "type": "cell-based", "details": "500 nM, 30′", "method": "PC12 and HEK293T cells were obtained from LGC Promochem GmbH (Teddington, UK) and cultured under the conditions specified by the manufacturer. NIH3T3 cells were stably transfected with human TrkB plasmid. PC12 cells were grown in DMEM medium (11965084, Gibco, Grand Island, NY, USA) containing 10% Horse Serum (16050122, Gibco, Grand Island, NY, USA), 5% Fetal Bovine Serum (10270106, Gibco, Grand Island, NY, USA), 100 units/mL Penicillin and 0.1 mg/mL Streptomycin (15140122, Gibco, Grand Island, NY, USA) at 5% CO2 and 37 °C. Cells were used between passages 5–20. HEK293T and NIH3T3 cells were grown in the same medium as PC12 cells supplemented with 10% Fetal Bovine Serum and lacking Horse Serum. For transient transfection of HEK293T cells, lipofectamine was used and cells were transfected with human p75^NTR and Traf6 plasmids. To determine the intracellular activity of endogenous secretases, we tagged (tGFP) a truncated mutant (Tm) of APP containing the original amino acids sequence from M516 to N773. This Tm conserves the secretases cleavage sites, clathrin binding site, tau protein binding site, collagen binding site and some glycosylation sites critical for protein localization and intracellular trafficking. The cDNA of the TmAPP gene was amplified by PCR and subcloned into pturbo-GFP vector. […]"}},
  "data": [
    {"smiles": "CC12CCC(O)CC1=CCC1C2CCC2(C)C1CCC21CC1C=CBr", "note": "[ENT-A013, (2′R,3S,17S)-2′-(2-Bromovinyl)-5-Androstene-17,1′-Cyclopropan-3-ol]", "values": [
      {"measurement": "residual of time zero", "setting": "[1]", "result": 93, "unit": "%"},
      {"measurement": "enzyme (catalytic) activity of the seven major CYP450s", "setting": "[2]; relative fluorescence of product", "result": "did not decrease the enzyme (catalytic) activity"},
      {"measurement": "CYP450 (%) metabolic activity, residual % of time zero (in words)", "setting": "[2]; t = 0 to t = 60 min", "result": "overall metabolically stable"},
      {"measurement": "TrkB phosphorylation (in words)", "setting": "TrkB", "result": "did not induce phosphorylation"}
    ]}
  ]
}
